Measured values as given in ChEMBL document CHEMBL2021812, “Aryltriflates as a Neglected Moiety in Medicinal Chemistry: A Case Study from a Lead Optimization of CXCL8 Inhibitors” (ACS Med Chem Lett, 2011).
Active and inactive are the calls of the source. No cut-off for these calls is given here.

Columns and labels:
[1] = target: Interleukin-8 receptors, CXCR1/CXCR2 (Homo sapiens) (UniProt P25025+P25024); experiment: Inhibition of CXCR1/2 in human polymorphonucleate cells assessed as inhibition of CXCL8-induced chemotaxis at 10^-8 M incubated for 15 mins prior to CXCL8-induction measured after 45 mins
Interleukin-8 receptors, CXCR1/CXCR2 (Homo sapiens), sequence (P25024 whole entry, looked up, one chain of several): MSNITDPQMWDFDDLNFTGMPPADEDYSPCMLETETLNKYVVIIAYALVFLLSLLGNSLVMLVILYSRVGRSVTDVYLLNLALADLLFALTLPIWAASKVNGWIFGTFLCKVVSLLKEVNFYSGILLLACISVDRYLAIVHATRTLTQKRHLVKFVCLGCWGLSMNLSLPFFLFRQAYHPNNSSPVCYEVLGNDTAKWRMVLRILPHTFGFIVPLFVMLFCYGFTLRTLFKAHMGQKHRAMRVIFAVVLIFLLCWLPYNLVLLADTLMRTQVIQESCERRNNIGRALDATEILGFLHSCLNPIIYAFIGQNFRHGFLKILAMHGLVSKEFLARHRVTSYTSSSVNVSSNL

[2] = target: T1, C-X-C chemokine receptor type 2 (Homo sapiens) (UniProt P25025); experiment: Inhibition of CXCR2 in human polymorphonucleate cells assessed as inhibition of CXCL1-induced chemotaxis at 10^-8 M incubated for 15 mins prior to CXCL1-induction measured after 45 mins
T1 sequence (whole entry): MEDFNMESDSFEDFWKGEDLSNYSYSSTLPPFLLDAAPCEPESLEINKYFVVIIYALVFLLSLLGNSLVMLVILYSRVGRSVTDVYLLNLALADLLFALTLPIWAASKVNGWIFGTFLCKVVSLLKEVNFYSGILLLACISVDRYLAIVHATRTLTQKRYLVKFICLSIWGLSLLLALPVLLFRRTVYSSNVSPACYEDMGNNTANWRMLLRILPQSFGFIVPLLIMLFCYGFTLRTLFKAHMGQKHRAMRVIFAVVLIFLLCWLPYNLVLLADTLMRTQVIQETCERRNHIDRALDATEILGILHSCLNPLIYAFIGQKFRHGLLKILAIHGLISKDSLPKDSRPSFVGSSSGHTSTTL

CYP2D6 = CYP2D6 (Homo sapiens, UniProt P10635); experiment: Inhibition of CYP2D6 using AMMC as substrate at 10 uM; assay type: ADME; details: probe AMMC
CYP2D6, sequence (P10635 whole entry): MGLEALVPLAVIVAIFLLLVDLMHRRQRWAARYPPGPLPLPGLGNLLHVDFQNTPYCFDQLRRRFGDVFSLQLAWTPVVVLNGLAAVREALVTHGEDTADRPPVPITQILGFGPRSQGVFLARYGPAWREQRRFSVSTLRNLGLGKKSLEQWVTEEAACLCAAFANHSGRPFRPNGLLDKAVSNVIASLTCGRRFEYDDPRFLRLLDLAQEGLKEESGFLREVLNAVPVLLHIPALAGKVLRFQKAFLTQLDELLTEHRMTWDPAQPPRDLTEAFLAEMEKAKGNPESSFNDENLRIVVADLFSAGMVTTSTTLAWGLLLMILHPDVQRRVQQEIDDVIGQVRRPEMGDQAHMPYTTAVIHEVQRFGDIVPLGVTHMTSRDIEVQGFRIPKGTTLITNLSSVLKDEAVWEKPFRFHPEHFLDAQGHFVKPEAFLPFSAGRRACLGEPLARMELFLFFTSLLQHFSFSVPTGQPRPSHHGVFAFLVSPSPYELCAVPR

CYP1A2 = target: T2, CYP1A2 (Homo sapiens, UniProt P05177); experiment: Inhibition of CYP1A2 using CEC as substrate at 10 uM; assay type: ADME; details: probe CEC
T2 sequence (P05177 whole entry): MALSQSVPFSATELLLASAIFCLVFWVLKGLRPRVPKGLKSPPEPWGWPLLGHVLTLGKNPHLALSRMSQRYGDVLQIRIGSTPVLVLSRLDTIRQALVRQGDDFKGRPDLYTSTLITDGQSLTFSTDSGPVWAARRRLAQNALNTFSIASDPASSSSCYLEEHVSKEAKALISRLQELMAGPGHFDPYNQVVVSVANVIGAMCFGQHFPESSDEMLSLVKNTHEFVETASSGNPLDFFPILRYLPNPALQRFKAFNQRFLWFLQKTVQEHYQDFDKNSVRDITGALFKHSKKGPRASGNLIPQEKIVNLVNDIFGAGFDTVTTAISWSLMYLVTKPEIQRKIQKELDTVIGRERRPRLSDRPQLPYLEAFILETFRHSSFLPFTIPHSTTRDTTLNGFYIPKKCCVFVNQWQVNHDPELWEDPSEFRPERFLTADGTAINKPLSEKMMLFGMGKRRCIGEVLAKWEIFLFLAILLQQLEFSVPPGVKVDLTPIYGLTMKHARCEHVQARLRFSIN

CYP2C19 = CYP2C19 (Homo sapiens, UniProt P33261); experiment: Inhibition of CYP2C19 using DBF as substrate at 10 uM; assay type: ADME; details: probe DBF
CYP2C19, sequence (P33261 whole entry): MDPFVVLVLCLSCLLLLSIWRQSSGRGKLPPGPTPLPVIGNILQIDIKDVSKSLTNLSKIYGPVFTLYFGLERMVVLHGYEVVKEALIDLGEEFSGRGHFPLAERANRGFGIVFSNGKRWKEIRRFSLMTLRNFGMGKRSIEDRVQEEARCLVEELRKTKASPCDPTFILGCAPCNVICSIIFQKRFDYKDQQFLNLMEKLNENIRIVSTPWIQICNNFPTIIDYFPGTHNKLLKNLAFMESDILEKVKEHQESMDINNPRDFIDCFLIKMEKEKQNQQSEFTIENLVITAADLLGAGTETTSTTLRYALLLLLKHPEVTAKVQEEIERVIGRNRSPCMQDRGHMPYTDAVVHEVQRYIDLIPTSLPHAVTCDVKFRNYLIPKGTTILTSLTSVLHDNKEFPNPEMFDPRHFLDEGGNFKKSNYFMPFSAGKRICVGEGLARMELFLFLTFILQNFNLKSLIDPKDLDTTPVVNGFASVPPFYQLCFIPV

CYP2C9 = CYP2C9 (Homo sapiens, UniProt P11712); experiment: Inhibition of CYP2C9 using 7MFC as substrate at 10 uM; assay type: ADME; details: probe 7MFC
CYP2C9, sequence (P11712 whole entry): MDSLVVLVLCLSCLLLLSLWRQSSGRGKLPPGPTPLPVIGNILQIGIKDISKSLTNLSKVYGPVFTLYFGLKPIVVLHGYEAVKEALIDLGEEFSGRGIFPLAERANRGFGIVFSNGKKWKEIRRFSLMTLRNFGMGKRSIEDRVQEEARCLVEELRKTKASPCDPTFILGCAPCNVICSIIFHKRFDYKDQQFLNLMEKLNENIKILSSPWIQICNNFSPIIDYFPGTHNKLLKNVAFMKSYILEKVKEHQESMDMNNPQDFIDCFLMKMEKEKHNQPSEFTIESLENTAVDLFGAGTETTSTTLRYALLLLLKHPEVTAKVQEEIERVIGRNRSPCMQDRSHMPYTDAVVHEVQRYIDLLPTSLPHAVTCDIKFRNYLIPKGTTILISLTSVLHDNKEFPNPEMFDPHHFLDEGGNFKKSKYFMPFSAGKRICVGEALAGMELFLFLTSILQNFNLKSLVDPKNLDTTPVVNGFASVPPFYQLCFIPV

CYP3A4 = CYP3A4 (Homo sapiens, UniProt P08684); experiment: Inhibition of CYP3A4 using BFC as substrate at 10 uM; assay type: ADME; details: probe BFC
CYP3A4, sequence (P08684 whole entry): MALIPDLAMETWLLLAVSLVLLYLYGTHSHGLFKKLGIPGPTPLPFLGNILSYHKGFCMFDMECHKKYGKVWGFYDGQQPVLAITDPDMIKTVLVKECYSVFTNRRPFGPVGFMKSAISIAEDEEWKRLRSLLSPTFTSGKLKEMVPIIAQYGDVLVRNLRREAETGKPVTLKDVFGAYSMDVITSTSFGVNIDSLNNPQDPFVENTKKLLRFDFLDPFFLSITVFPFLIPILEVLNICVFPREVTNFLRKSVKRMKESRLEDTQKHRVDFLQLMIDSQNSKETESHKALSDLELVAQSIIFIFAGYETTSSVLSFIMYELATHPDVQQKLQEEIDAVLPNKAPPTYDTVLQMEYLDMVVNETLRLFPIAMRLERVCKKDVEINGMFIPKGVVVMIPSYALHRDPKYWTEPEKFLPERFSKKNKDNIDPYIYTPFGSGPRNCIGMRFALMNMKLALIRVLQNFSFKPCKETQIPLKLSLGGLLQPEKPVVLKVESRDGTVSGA

[3] = Metabolic stability in rat liver microsomes assessed as compound remaining at 1 uM preincubated for 10 mins measured after 30 mins; assay type: ADME, Microsome; details: read-out: Stability

SMILES | inhibition [1] | inhibition [2] | inhibition at 10 µM (CYP2D6) | inhibition at 10 µM (CYP1A2) | inhibition at 10 µM (CYP2C19) | inhibition at 10 µM (CYP2C9) | inhibition at 10 µM (CYP3A4) | remaining at 0.5 h, 1 µM [3]
C[C@@H](C(=O)Nc1nc(C(F)(F)F)cs1)c1ccc(OS(=O)(=O)C(F)(F)F)cc1 | 64% | 55% | 56% | 14% | 94% | 73% | 52% | –
C[C@@H](C(=O)Nc1nnco1)c1ccc(OS(=O)(=O)C(F)(F)F)cc1 | 44% | 48% | – | – | – | – | – | –
C[C@@H](C(=O)NS(=O)(=O)C1CC1)c1ccc(OS(=O)(=O)C(F)(F)F)cc1 | 44% | 45% | – | – | – | – | – | –
C[C@H](C(=O)NS(C)(=O)=O)c1ccc(OS(=O)(=O)C(F)(F)F)cc1 | inactive | inactive | – | – | – | – | – | –
C[C@@H](C(=O)Nc1nncs1)c1ccc(OS(=O)(=O)C(F)(F)F)cc1 | 54% | 55% | 40% | < 5% | 70% | 50% | 66% | –
CC(C)NC(=O)[C@H](C)c1ccc(OS(=O)(=O)C(F)(F)F)cc1 | 58% | 65% | – | – | – | – | – | 75%
C[C@@H](C(=O)Nc1nnc[nH]1)c1ccc(OS(=O)(=O)C(F)(F)F)cc1 | 44% | 45% | < 5% | < 5% | 21% | < 5% | 8% | –
C[C@@H](C(=O)Nc1ncco1)c1ccc(OS(=O)(=O)C(F)(F)F)cc1 | 47% | 46% | < 5% | 15% | 90% | 70% | 44% | –
C[C@H](C(=O)O)c1ccc(OS(=O)(=O)C(F)(F)F)cc1 | inactive | inactive | – | – | – | – | – | –
Cc1csc(NC(=O)[C@H](C)c2ccc(OS(=O)(=O)C(F)(F)F)cc2)n1 | 58% | 50% | < 5% | 16% | 90% | 60% | 60% | –
C[C@@H](C(=O)Nc1nccs1)c1ccc(OS(=O)(=O)C(F)(F)F)cc1 | 56% | 55% | 26% | 36% | 87% | 53% | 52% | –
